Measured values from paper PMC9037180, “Ligand-based design and synthesis of N'-Benzylidene-3,4-dimethoxybenzohydrazide derivatives as potential antimicrobial agents; evaluation by in vitro, in vivo, and in silico approaches with SAR studies” (Journal of Enzyme Inhibition and Medicinal Chemistry, 2022).
pIC50: −log10 of the molar value. ≈ marks a conversion by molar mass, not a printed value.

Columns and labels:
Type in all cases: cell-based
[1] = Cytotoxicity on cells using MTT assay; details: African green monkey, Vero cells (normal mammalian cell line)
Experimental: The newly synthesised compounds were looked deeply into their efficacy using in silico, in vitro, and in vivo approaches. On the other hand, the cytotoxicity assay was performed for the tested compounds using a normal mammalian Vero cell line by the MTT assay[31]^,[32].
Moreover, the cytotoxicity values of the target compounds were determined to calculate their corresponding IC50 values through the MTT assay. The IC50 value indicates the compound’s concentration that is required to inhibit 50% of the target cells.
The MTT (3–(4,5-dimethylthiazol-2-yl)-2,5-diphenyltetrazolium bromide) tetrazolium reduction assay protocol was applied to determine the cytotoxicity of the target compounds (4a–j) on cells.

[2] = system: E. coli; test: Agar well diffusion assay; details: result in words
Experimental: (§1) The agar well diffusion assay was first done to evaluate the antimicrobial activities of the different target compounds (4a–j) against gram-positive bacteria, gram-negative bacteria, and fungi (Table 1A). […] First, the antibacterial activities were tested against S. aureus ATCC 6538, Acientobacter (A. baumanii) ATCC 19606, S. typhi, E. coli, and P. aeruginosa as examples of the most common gram-positive and gram-negative bacteria, in comparison to vancomycin and ceftriaxone as two reference standards. In addition, the antifungal activities were screened against C. albicans, in comparison to amphotericin as a reference standard. […] The antibacterial activities of some tested compounds (4a, 4b, 4h, and 4e) against gram-positive and gram-negative bacteria by agar well diffusion assay are represented in the supplementary data (Figure SI1).
(§2) A modification of the agar well diffusion method[55] was done to detect the antimicrobial activities of different compounds (4a–j) against gram-positive bacteria, gram-negative bacteria, and fungi. The work was carried out at the Microbiology Department Faculty of Medicine for Girls Al-Azhar University. By visual comparison to 0.5 McFarland turbidity standards, a suspension of each bacterial strain was prepared. The zones of inhibition were measured in cm.

[3] = system: Acientobacter (A. baumanii) ATCC 19606; test: Agar well diffusion assay; details: result in words
Experimental: as §1, §2

[4] = system: S. typhi; test: Minimal bactericidal concentration (MBC); details: Salmonella enterica
[5] = system: S. typhi; test: Agar well diffusion assay; details: result in words
Experimental: as §1, §2

[6] = system: S. aureus ATCC 6538; test: Agar well diffusion assay; details: result in words
Experimental: as §1, §2

[7] = system: P. aeruginosa; test: Agar well diffusion assay; details: result in words
Experimental: as §1, §2

| Molecule | pIC50 [1] | zones of inhibition (inhibitory activity) [2] | zones of inhibition (inhibitory activity) [3] | MBC [4] | zones of inhibition (inhibitory activity) [5] | zones of inhibition (inhibitory activity) [6] | zones of inhibition (inhibitory activity) [7] |
| --- | --- | --- | --- | --- | --- | --- | --- |
| COc1ccc(C(=O)NN=Cc2ccc3ccccc3n2)cc1OC [Compound 4i, N'-(quinolin-2-ylmethylene)-3,4-dimethoxybenzohydrazide] | 3.52 | superior inhibitory activity | most inhibitory activity | 186 µM (≈ 62.5 µg/mL) | – | – | – |
| N'-((3a,7a-dihydro-1H-indol-3-yl)methylene)-3,4-dimethoxybenzohydrazide [Compound 4h] | – | – | – | – | best activities | best activities | best activities |
